Test results published in patent US20070082910A1, “Specific nad(p)h oxidase inhibitor” (Mitsubishi Pharma Corporation, priority 2003, published 2007).

Legend:
[1] = test system: NAD(P)H oxidase; assay: IL-8 production inhibitory effect in HUVEC cultured with 44 mM glucose; assay type: cell-based, human; conditions: for inhibitory rate (%) of IL-8 production: 8 days
Description: NAD(P)HOxidase Inhibitory Effect (Method)
44 mM glucose was added to Human Umbilical Vein Endothelial Cells (Bio Whittaker, hereinafter to be indicated as “HUVEC”), and cells were cultured for 8 days. Then, a lysis buffer containing a surfactant, Triton-X Nonidet P-40, was added, and interleukin-8 (hereinafter to be indicated as “IL-8”) in the cell lysate, which had been produced by NAD(P)H oxidase was measured by an enzyme-linked […]. The test compound was added one day before glucose addition.
The inhibitory rate was calculated from the following formula: inhibitory rate (%)=100−[(A−C)/(B−C)]×100
wherein A is IL-8 production of a cell cultured in the presence of 44 mM glucose with addition of the test compound, B is IL-8 production of a cell cultured in the presence of 44 mM glucose without addition of the test compound, and C is IL-8 production of a cell cultured in the absence of 44 mM glucose and the test compound. The IC50 value was calculated from the dose-effect line drawn by the least squares method based on the obtained inhibitory rate.

[2] = test system: NAD(P)H oxidase in diabetic rat aorta; assay: NAD(P)H oxidase activity (superoxide anion production, lucigenin chemiluminescence) in aorta of streptozotocin diabetic rats after oral administration; assay type: in vivo; conditions: 10 mg/kg oral, once a day for 3 days
Description: Streptozotocin (40 mg/kg) dissolved in 0.05 M citric acid buffer (pH 4.5) was administered into the tail vein of male Wistar rats (Japan SLC) to prepare diabetic rats. At 1 week to 8 weeks from the intravenous injection of streptozotocin, blood was drawn from the tail vein using a capillary treated with heparin, which was immediately cooled with ice and centrifuged at 3000 rpm, 15 min, 4° C. to give serum. The blood glucose level was measured by enzyme assay using a glucose measurement kit “GLU neo sinotest” (sinotest) and a microplate reader (SPECTRA MAX250, Molecular Devices).
The NAD(P)H oxidase activity was measured by the following method, which was modified by the method of the David. G. Harrison et al. (J. Clin. Invest. 91, 2546-2551, 1993), at 4 days from the start of the test, with superoxide anion production in aorta as an index.
To be specific, normal rat or diabetic rat free of the above-mentioned treatment was exsanguinated from the abdominal aorta, their thoracic aorta was removed. The removed thoracic aorta was immersed in Krebs-Hepes buffer and marginal tissues were removed to prepare an about 5 mm ring specimen. This ring specimen was preincubate in Krebs-Hepes buffer at 37° C. for 10 min and transferred to Krebs-Hepes buffer containing 0.25 mM lucigenin (SIGMA). 500 μM NADH (SIGMA) was added and chemiluminescence value (chemiluminescence: unit RLU: relative light units) was measured using a luminometer (MULTI-BIOLUMAT LB9505C, Warrack.Berthold) at 37° C. for 10 min. The total value of chemiluminescence was calculated from the area under the curve (hereinafter to be referred to as “AUC”) drawn by plotting the chemiluminescence value (vertical axis) relative to the measurement time (horizontal axis). The measured total value of chemiluminescence was divided by the wet weight of the vascular ring specimen and standardized to the superoxide anion production per aorta unit weight.
The inhibitory rate (%) was calculated from the following formula: inhibitory rate (%)=100−[(A−C)/(B−C)]×100
wherein A was the standardized value of chemiluminescence of diabetic rat administered with the test compound, B was the standardized value of chemiluminescence of diabetic rat without administration of the test compound, and C was the standardized value of chemiluminescence of normal rat without administration of the test compound.

[3] = test system: NAD(P)H oxidase in normal rat aorta; assay: Effect on normal rat NAD(P)H oxidase (superoxide anion production in aorta after administration); assay type: in vivo; conditions: 10 mg/kg for 3 days
Description: The test compound (10 mg/kg) was administered to normal male Wistar rats (Japan SLC) for 3 days, and the production amount of superoxide anion in the aorta was measured in the same manner as in Experimental Example 2.
The inhibitory rate (%) was calculated by the following formula: inhibitory rate (%)=100−(A/B)×100 wherein A is the standardized chemiluminescence value of the rats administered with the test compound, and B is the standardized chemiluminescence value of the rats without administration of the test compound (control group).

[4] = test system: leukocyte NADPH oxidase; assay: Effect on leukocyte NADPH oxidase (PMA-stimulated lucigenin chemiluminescence); assay type: cell-based, rat
Description: Blood was drawn from the abdominal aorta of normal male Wister rats (Japan SLC) and immediately mixed with an ice-cold lysis buffer at 42 mL of the buffer per 3 mL of the blood.
After 5 min, the mixture was centrifuged at 4° C., 1100 rpm for 5 min. The precipitate was suspended in an ice-cold Lysis buffer, and centrifuged again at 4° C., 1100 rpm for 5 min. This operation was repeated 3 times to obtain leukocytes. The obtained leukocytes were suspended in Krebs-Hepes buffer and the number of the cells was adjusted to 1×10^6/ml. 0.25 mM Lucigenin and the test agent were added, Phorbol 12-myristate 13-acetate (hereinafter to be indicated as “PMA”, SIGMA) was further added, and the chemiluminescence value was measured at 37° C. for 10 min.
The inhibitory rate (%) was calculated by the following formula: inhibitory rate (%)=100−[(A−C)/(B−C))×[…] wherein A is the total chemiluminescence value of the leukocyte suspension with the addition of the test compound, B is the total chemiluminescence value of the leukocyte suspension (control) without addition of the test compound, and C is the total chemiluminescence value of the leukocyte suspension without stimulation with PMA.

[5] = test system: cerebral infarction model; assay: Cerebral infarction model (ischemic brain disorder model), ligation of both common carotid arteries; assay type: in vivo, mouse
Description: Male ICR mice (Japan SLC) were anesthetized with ether and fixed in the dorsal position. The both common carotid arteries were ligated using a thread. The wound was closed, and the mice were released in a cage. The death of the mouse was confirmed every 30 min up to 240 min, and cumulative mortality rate of each group was determined. Compound B was orally administered 1 hr before common carotid artery ligation.

C[C@@H](Nc1nnc(-c2ccccc2)c2ccccc12)c1ccccc1 [compound B]
IC50 ([1]; from dose-effect line by least squares): < 10 nM | inhibitory rate (%) of IL-8 production ([1]; test compound concentration 0.01 μM): 63.8% | inhibitory rate (%) of IL-8 production ([1]; test compound concentration 0.1 μM): 77.8% | inhibitory rate (%) of IL-8 production ([1]; test compound concentration 1 μM): 72.0% | inhibitory rate (%), NAD(P)H oxidase in diabetic rat aorta [2]: 88.5% | inhibitory rate (%), NAD(P)H oxidase in normal rat aorta [3]: −1.3% | effect on superoxide anion production in normal rat ([3]; result in words): did not affect the superoxide anion production | chemiluminescence (×10^5 RLU/wet weight of aorta) ([3]; normal rat aorta, mean ± standard error): 4.01 ± 6.0 ×10^5 RLU/wet weight of aorta | inhibitory rate (%), leukocyte NADPH oxidase ([4]; 1 μM, PMA-stimulated rat leukocytes, mean ± standard error): 11.7 ± 24.2% | inhibitory effect on leukocyte NADPH oxidase ([4]; result in words): did not show an inhibitory effect on leukocyte NADPH oxidase | number of deaths in interval ([5]; 1 mg/kg oral 1 hr before ligation, 0-30 min): 15 | number of deaths in interval ([5]; 1 mg/kg oral, 31-60 min): 2 | number of deaths in interval ([5]; 1 mg/kg oral, 61-90 min): 2 | number of deaths in interval ([5]; 1 mg/kg oral, 91-120 min): 0 | number of deaths in interval ([5]; 1 mg/kg oral, 121-150 min): 0 | number of deaths in interval ([5]; 1 mg/kg oral, 151-180 min): 0 | number of deaths in interval ([5]; 1 mg/kg oral, 181-210 min): 0 | number of deaths in interval ([5]; 1 mg/kg oral, 211-240 min): 0 | cumulative mortality rate ([5]; 1 mg/kg oral, up to 30 min): 78.9% | cumulative mortality rate ([5]; 1 mg/kg oral, up to 60 min): 84.2% | cumulative mortality rate ([5]; 1 mg/kg oral, up to 90 min): 94.7% | number of deaths in interval ([5]; 3 mg/kg oral 1 hr before ligation, 0-30 min): 11 | number of deaths in interval ([5]; 3 mg/kg oral, 31-60 min): 5 | number of deaths in interval ([5]; 3 mg/kg oral, 61-90 min): 0 | number of deaths in interval ([5]; 3 mg/kg oral, 91-120 min): 0 | number of deaths in interval ([5]; 3 mg/kg oral, 121-150 min): 1 | number of deaths in interval ([5]; 3 mg/kg oral, 151-180 min): 0 | number of deaths in interval ([5]; 3 mg/kg oral, 181-210 min): 0 | number of deaths in interval ([5]; 3 mg/kg oral, 211-240 min): 0 | cumulative mortality rate ([5]; 3 mg/kg oral, up to 30 min): 57.9% | cumulative mortality rate ([5]; 3 mg/kg oral, up to 60 min): 84.2% | cumulative mortality rate ([5]; 3 mg/kg oral, up to 150 min): 89.5% | number of deaths in interval ([5]; 10 mg/kg oral 1 hr before ligation, 0-30 min): 8 | number of deaths in interval ([5]; 10 mg/kg oral, 31-60 min): 6 | number of deaths in interval ([5]; 10 mg/kg oral, 61-90 min): 2 | number of deaths in interval ([5]; 10 mg/kg oral, 91-120 min): 1 | number of deaths in interval ([5]; 10 mg/kg oral, 121-150 min): 0 | number of deaths in interval ([5]; 10 mg/kg oral, 151-180 min): 0 | number of deaths in interval ([5]; 10 mg/kg oral, 181-210 min): 0 | number of deaths in interval ([5]; 10 mg/kg oral, 211-240 min): 0 | cumulative mortality rate ([5]; 10 mg/kg oral, up to 30 min): 40.0% | cumulative mortality rate ([5]; 10 mg/kg oral, up to 60 min): 70.0% | cumulative mortality rate ([5]; 10 mg/kg oral, up to 90 min): 80.0% | cumulative mortality rate ([5]; 10 mg/kg oral, up to 120 min): 85.0% | mortality rate improving effect in brain ischemia model ([5]; result in words): a mortality rate improving effect was seen
